These results are taken from patent publication US20240360082A1, “SUBSTITUTED PYRIDONE COMPOUNDS USEFUL TO TREAT ORTH[…]” (priority 2021, published 2024).

Sequence of influenza A virus minigenome (PB2, PB1, PA, NP proteins) (P04665 whole entry): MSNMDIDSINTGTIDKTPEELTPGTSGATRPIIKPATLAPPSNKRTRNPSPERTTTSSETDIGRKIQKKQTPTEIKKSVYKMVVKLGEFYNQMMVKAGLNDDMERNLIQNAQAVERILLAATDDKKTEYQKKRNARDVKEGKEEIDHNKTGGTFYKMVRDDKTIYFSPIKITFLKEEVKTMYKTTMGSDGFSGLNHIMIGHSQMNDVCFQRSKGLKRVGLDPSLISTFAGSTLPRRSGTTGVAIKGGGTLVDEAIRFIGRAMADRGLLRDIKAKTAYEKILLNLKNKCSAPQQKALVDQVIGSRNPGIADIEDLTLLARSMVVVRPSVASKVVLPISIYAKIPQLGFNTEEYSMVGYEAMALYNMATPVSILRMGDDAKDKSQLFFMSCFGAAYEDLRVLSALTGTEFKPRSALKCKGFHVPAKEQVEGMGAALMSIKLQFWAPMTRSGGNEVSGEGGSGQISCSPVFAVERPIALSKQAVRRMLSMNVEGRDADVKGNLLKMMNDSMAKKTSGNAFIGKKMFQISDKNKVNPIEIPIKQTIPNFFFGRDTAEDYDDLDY

One experiment concerns the target influenza A virus minigenome (PB2, PB1, PA, NP proteins) (UniProt P04665). It counts as cell-based. Conditions: read-out: RNP_ Hubei B IC50.
For `NC(=O)c1cc(-c2ccc(OCC3COC(CF)CO3)cc2)c(C(F)(F)F)[nH]c1=O` (single isomer, unassigned) [Example 340, 5-(4-((5-(fluoromethyl)-1,4-dioxan-2-yl)methoxy)phenyl)-2-oxo-6-(trifluoromethyl)-1,2-dihydropyridine-3-carboxamide], the IC50 lay in the range of 5 to 10 µM.
Still for that read-out and setting: as for `N#CCC1(COc2ccc(-c3cc(C(N)=O)c(=O)[nH]c3C(F)(F)F)cc2)COC1` [Example 229, 5-(4-((3-(cyanomethyl)oxetan-3-yl)methoxy)phenyl)-2-oxo-6-(trifluoromethyl)-1,2-dihydropyridine-3-carboxamide], the figure is 25 to 50 µM; as for `NC(=O)c1cc(-c2ccc(OCC3COCC(F)(F)C3)cc2)c(C(F)(F)F)[nH]c1=O` (single isomer, unassigned) [Example 337, 5-(4-((5,5-difluorotetrahydro-2H-pyran-3-yl)methoxy)phenyl)-2-oxo-6-(trifluoromethyl)-1,2-dihydropyridine-3-carboxamide], 5 to 10 µM.
The same measure, in the same setting: as for `NC(=O)c1cc(-c2ccc(OCC3COCC(C4CCCC4)O3)cc2)c(C(F)(F)F)[nH]c1=O` (racemic) [Example 333, 5-(4-((6-cyclopentyl-1,4-dioxan-2-yl)methoxy)phenyl)-2-oxo-6-(trifluoromethyl)-1,2-dihydropyridine-3-carboxamide], the figure is 1 to 5 µM; as for `NC(=O)c1cc(-c2ccc(OCC3CCOC3)cc2)c(C(F)(F)F)[nH]c1=O` (stereo not shown) [Example 231, 2-oxo-5-(4-((tetrahydrofuran-3-yl)methoxy)phenyl)-6-(trifluoromethyl)-1,2-dihydropyridine-3-carboxamide], 25 to 50 µM.
Regarding `[2H]C([2H])([2H])OC[C@@]1(C)COC[C@@H](COc2ccc(-c3cc(C(N)=O)c(=O)[nH]c3C(F)(F)F)cc2)O1` [Example 410, 5-(4-(((2S,6S)-6-((methoxy-d3)methyl)-6-methyl-1,4-dioxan-2-yl)methoxy)phenyl)-2-oxo-6-(trifluoromethyl)-1,2-dihydropyridine-3-carboxamide], the IC50 lay within 5 to 10 µM.
On the same count and under the same terms, as for `NC(=O)c1cc(-c2ccc(OCC3(F)COCCO3)cc2)c(C(F)(F)F)[nH]c1=O` (stereo not shown) [Example 388, 5-(4-((2-fluoro-1,4-dioxan-2-yl)methoxy)phenyl)-2-oxo-6-(trifluoromethyl)-1,2-dihydropyridine-3-carboxamide], the figure is 5 to 10 µM; as for `C[C@@H]1COC[C@@H](COc2ccc(-c3cc(C(N)=O)c(=O)[nH]c3C(F)(F)F)cc2)O1` [Example 329, 5-(4-(((2S,6R)-6-methyl-1,4-dioxan-2-yl)methoxy)phenyl)-2-oxo-6-(trifluoromethyl)-1,2-dihydropyridine-3-carboxamide], 25 to 50 µM.
On the same count and under the same terms, for `COCC1(COC)COC[C@@H](COc2ccc(-c3cc(C(N)=O)c(=O)[nH]c3C(F)(F)F)cc2)O1` [Example 414, (S)-5-(4-((6,6-bis(methoxymethyl)-1,4-dioxan-2-yl)methoxy)phenyl)-2-oxo-6-(trifluoromethyl)-1,2-dihydropyridine-3-carboxamide] the value was 5 to 10 µM.
On the same count and under the same terms, for `C[C@]1(CO)COC[C@@H](COc2ccc(-c3cc(C(N)=O)c(=O)[nH]c3C(F)(F)F)cc2)O1` [Example 433, 5-(4-(((2S,6S)-6-(hydroxymethyl)-6-methyl-1,4-dioxan-2-yl)methoxy)phenyl)-2-oxo-6-(trifluoromethyl)-1,2-dihydropyridine-3-carboxamide] the value was 5 to 10 µM; for `NC(=O)c1cc(-c2ccc(OCC3C[C@@H]4CC[C@H]3O4)cc2)c(C(F)(F)F)[nH]c1=O` (single isomer, unassigned) [Example 312, 5-(4-((7-oxabicyclo[2.2.1]heptan-2-yl)methoxy)phenyl)-2-oxo-6-(trifluoromethyl)-1,2-dihydropyridine-3-carboxamide], 5 to 10 µM; for `NC(=O)c1cc(-c2ccc(OCC3COCC(COC(F)(F)F)O3)cc2)c(C(F)(F)F)[nH]c1=O` (single isomer, unassigned) [Example 372, 2-oxo-5-(4-((6-((trifluoromethoxy)methyl)-1,4-dioxan-2-yl)methoxy)phenyl)-6-(trifluoromethyl)-1,2-dihydropyridine-3-carboxamide], 1 to 5 µM.
For `NC(=O)c1cc(-c2ccc(OCC3CCCO3)cc2)c(C(F)(F)F)[nH]c1=O` (stereo not shown) [Example 232, 2-oxo-5-(4-((tetrahydrofuran-2-yl)methoxy)phenyl)-6-(trifluoromethyl)-1,2-dihydropyridine-3-carboxamide], the IC50 lay within 10 to 25 µM.

Staying with this experiment, now noted: read-out: RNP_Hubei B.
With `CCOCC1COCC(COc2ccc(-c3cc(C(N)=O)c(=O)[nH]c3C(F)(F)F)cc2)O1` (single isomer, unassigned) [Example 360, 5-(4-((6-(ethoxymethyl)-1,4-dioxan-2-yl)methoxy)phenyl)-2-oxo-6-(trifluoromethyl)-1,2-dihydropyridine-3-carboxamide], the IC50 was in the range of 5 to 10 µM.
On to `C[C@@H]1CN(Cc2ccc(-c3cc(C(N)=O)c(=O)[nH]c3C(F)(F)F)cc2)C[C@H](C)O1` [Example 35, 5-(4-(((2S,6R)-2,6-dimethylmorpholino)methyl)phenyl)-2-oxo-6-(trifluoromethyl)-1,2-dihydropyridine-3-carboxamide], for which the IC50 lay within 25 to 50 µM.
Consider `COCC(Oc1ccc(-c2cc(C(N)=O)c(=O)[nH]c2C(F)(F)F)cc1)c1cccnc1` (stereo not shown) [Example 186, 5-(4-(2-methoxy-1-(pyridin-3-yl)ethoxy)phenyl)-2-oxo-6-(trifluoromethyl)-1,2-dihydropyridine-3-carboxamide], for which the IC50 is 25 to 50 µM.
As to `NC(=O)c1cc(-c2ccc(OCc3ccc(C(F)(F)F)cc3)cc2)c(C(F)(F)F)[nH]c1=O` [Example 87, 2-oxo-6-(trifluoromethyl)-5-(4-((4-(trifluoromethyl)benzyl)oxy)phenyl)-1,2-dihydropyridine-3-carboxamide], the IC50 is 1 to 5 µM.
On the same count and under the same terms, as for `COc1ccc(COc2ccc(-c3cc(C(N)=O)c(=O)[nH]c3C(F)(F)F)cc2)cc1` [Example 59, 5-(4-((4-methoxybenzyl)oxy)phenyl)-2-oxo-6-(trifluoromethyl)-1,2-dihydropyridine-3-carboxamide], the figure is 5 to 10 µM; as for `COc1ccc(-c2cc(C(N)=O)c(=O)[nH]c2C(F)(F)F)cc1Cl` [Example 18, 5-(3-chloro-4-methoxyphenyl)-2-oxo-6-(trifluoromethyl)-1,2-dihydropyridine-3-carboxamide], 10 to 25 µM; as for `N#Cc1ccc(COc2ccc(-c3cc(C(N)=O)c(=O)[nH]c3C(F)(F)F)cc2)cc1` [Example 77, 5-(4-((4-cyanobenzyl)oxy)phenyl)-2-oxo-6-(trifluoromethyl)-1,2-dihydropyridine-3-carboxamide], 10 to 25 µM.
Still for that read-out and setting: as for `NC(=O)c1cc(-c2ccc(OCc3cccc4nonc34)cc2)c(C(F)(F)F)[nH]c1=O` [Example 74, 5-(4-(benzo[c][1,2,5]oxadiazol-4-ylmethoxy)phenyl)-2-oxo-6-(trifluoromethyl)-1,2-dihydropyridine-3-carboxamide], the figure is 10 to 25 µM.
Same read-out and setting: for `NC(=O)c1cc(-c2ccc(CN3CCOCC3)cc2)c(C(F)(F)F)[nH]c1=O` [Example 1, 5-(4-(morpholinomethyl)phenyl)-2-oxo-6-(trifluoromethyl)-1,2-dihydropyridine-3-carboxamide] the value was 25 to 50 µM.
